Assays:
[1] = system: Lactobacilli; experiment: Batch culture fermentation, FISH enumeration; type: cell-based, Lactobacillus/Enterococcus spp.; conditions: 1% (w/v) substrate
Method: (§1) Faecal samples are obtained from healthy human volunteers. Volunteers are required not to have been prescribed antibiotics for at least 6 months prior to the study and have no history of gastrointestinal diseases. The samples are collected on site and used immediately following collection. A 1/10 dilution in anaerobic phosphate buffer (0.1 M, pH 7.4) is prepared and the samples homogenised in a stomacher for 2 minutes.
(§2) Sterile, stirred, batch culture fermentation vessels (300 ml volume) are filled with 135 ml basal nutrient medium (peptone water 2 g/l, yeast extract 2 g/l, NaCl 0.1 g/l, K2HPO4 0.04 g/l, KH2PO4 0.04 g/l, MgSO4.7H2O 0.01 g/l, CaCl2.6H2O 0.01, NaHCO3 2 g/l, Tween 80 2 ml, Hemin 0.02 g/l, Vitamin K1 10 μl, Cysteine.HCl 0.5 g/l, Bile salts (sodium glycocholate and sodium taurocholate) 0.5 g/l, pH 7.0) and gassed overnight with oxygen free nitrogen. […] Samples (3 ml) from each vessel are obtained for fluorescence in situ hybridisation (FISH), analysis of SCFA by high performance liquid chromatography (HPLC) and total carbohydrate measurement by assay. […]
(§3) Differences in bacterial populations are assessed through use of FISH with oligonucleotide probes designed to target diagnostic regions of 16S rRNA. […]

[2] = system: Clostridia; experiment: Batch culture fermentation, FISH enumeration; type: cell-based, Clostridium coccoides and Clostridium histolyticum; conditions: 1% (w/v) substrate
Method: as §1, §2, §3

[3] = system: Bacteroides spp.; experiment: Batch culture fermentation, FISH enumeration; type: cell-based; conditions: 1% (w/v) substrate
Method: as §1
(§4) Sterile, stirred, batch culture fermentation vessels (300 ml volume) are filled with 135 ml basal nutrient medium (peptone water 2 g/l, yeast extract 2 g/l, NaCl 0.1 g/l, K2HPO4 0.04 g/l, KH2PO4 0.04 g/l, MgSO4.7H2O 0.01 g/l, CaCl2.6H2O 0.01, NaHCO3 2 g/l, Tween 80 2 ml, Hemin 0.02 g/l, Vitamin K1 10 μl, Cysteine.HCl 0.5 g/l, Bile salts (sodium glycocholate and sodium taurocholate) 0.5 g/l, pH 7.0) and gassed overnight with oxygen free nitrogen. Prior to addition of the faecal slurry,0.25%, 0.5% or 1% (w/v) testing substrates are added to different vessels, culture temperature is set at 37° C. by means of a circulating water bath and medium pH is maintained at 6.8 using an Electrolab pH controller. The vessels are inoculated with 15 ml of fresh faecal slurry ( 1/10 w/v) and continuously sparged with O2-free N2 at a flow rate of 15 ml/min. Samples (3 ml) from each vessel are obtained for fluorescence in situ hybridisation (FISH), analysis of SCFA by high performance liquid chromatography (HPLC) and total carbohydrate measurement by assay. Batch cultures are run over a period of 24 hours and samples are obtained every 2 hours up to 12 hours and then at 15 and 24 hours.
(§5) Differences in bacterial populations are assessed through use of FISH with oligonucleotide probes designed to target diagnostic regions of 16S rRNA. These are commercially synthesised and labelled with the fluorescent dye Cy3 (provided by Eurogentec UK Ltd).
(§6) For total bacterial counts the nucleic acid stain 4,6-diamidino-2-phenylindole (DAPI) is used. Samples obtained from fermentation vessels are diluted in 4% (w/v) paraformaldehyde and fixed overnight at 4° C. The cells are then centrifuged at 1500×g for 5 minutes, washed twice with phosphate-buffered saline (PBS; 0.1 M, pH 7.0), resuspended in a mixture of PBS/99% ethanol (1:1 w/v) and stored at −20° C. for at least 1 hour. For Lab 158 probe samples are further resuspended in the enzyme mixture containing agents that increase cell permeability and incubated for 1 hour at 37° C. The cells are then washed in PBS, resuspended in 100% methanol and stored at −20° C. for at least 1 hour. The cell suspension is then added to the hybridisation mixture and left overnight to hybridise at the appropriate temperature for each probe. Hybridized mixture is vacuum filtered using a 0.2 μm Isopore membrane filter (Millipore Corporation, Herts, UK). The filter is removed, placed onto a glass slide with SlowFade (Molecular Probes, Eugan, Oreg., USA) and examined under a fluorescent microscope (Nicon Eclipse, E400). The DAPI stained cells are examined under UV light and hybridised cells viewed using a DM510 filter. […] Samples are taken after 24 hours. […] Microbial counts are presented as log10cells/ml.

[4] = system: Bifidobacterium spp.; experiment: Batch culture fermentation, FISH enumeration; type: cell-based; conditions: 1% (w/v) substrate
Method: as §1, §4, §5, §6

[5] = system: Desulfovibrio spp.; experiment: Batch culture fermentation, FISH enumeration; type: cell-based; conditions: 1% (w/v) substrate
Method: as §1, §4, §5, §6

[6] = system: faecal bacteria; experiment: Analysis of SCFA production by HPLC, batch culture; type: cell-based, human; conditions: 1% (w/v) substrate
Method: The production of succinic, lactic, formic, acetic, propionic, isobutyric, butyric, isovaleric and valeric acids in the fermentations is quantified by HPLC. Samples are centrifuged at 1500×g for 15 minutes and the resultant supernatant used for injection. A Model 1050 UV HPLC (Hewlett Packard), with an integrated oven compartment (50° C.) and data system is used in combination with a differential refractometer (Knauer). Sample injection is performed using an autosampler and is of 20 μl volume. The column is a pre-packed Aminex HPX-87-H strong cation-exchange resin column (150×7.8 mm I.D.), fitted with an ion exclusion micro-guard refill cartridge (Bio-Rad Labs., USA). The eluent used is 0.005 M sulphuric acid. Faecal samples are incubated with 135 ml basal nutrient medium containing 1% (w/v) substrate in batch culture systems at 37° C. Samples are taken every 2 hours up to 10 hours and then at 15 and 24 hours.

[7] = system: E. coli; experiment: Batch culture fermentation, FISH enumeration; type: cell-based, Escherichia coli; conditions: 1% (w/v) substrate
Excerpt: For total bacterial counts the nucleic acid stain 4,6-diamidino-2-phenylindole (DAPI) is used. […] For each slide at least 15 different fields of view are counted. […]

[8] = system: Eubacteria; experiment: Batch culture fermentation, FISH enumeration; type: cell-based, Eubacterium rectale; conditions: 1% (w/v) substrate
Method: as §1, §2, §3

[9] = system: faecal bacteria; experiment: Total carbohydrate assay, rate of substrate assimilation, batch culture; type: cell-based, human; conditions: St=S0−Art, S0=1% by weight, exponential phase of bacterial growth
Method: A phenol-sulphuric acid assay is used for the determination of total carbohydrate content as expressed in glucose equivalents. The assay is calibrated with D-glucose standards ranging from 0 to 0.15 mgml^−1. Measurements of the absorbance at 450 nm are taken using the spectrophotometer and plotted against the standards. The total carbohydrate content is thus calculated. […] Samples are taken every 2 hours up to […] and then at 15 and 24 hours. […] The rate of assimilation is calculated with the following equation: St=S0−Art […]

[10] = system: faecal bacteria; experiment: Measure of the prebiotic effect (MPE), batch culture; type: cell-based, human; conditions: ½√(x²y²+x²z²+y²z²), x=PI (μmax), y=ratio, z=Ar; sign from PI
Excerpt: The three values (PI, Ar and ratio) obtained are used to calculate the MPE value using the following equation: ½√{square root over (x^2y^2+x^2z^2+y^2z^2)}=MPE wherein x=PI (as calculated under paragraph 2.1.2); y=ratio of lactate over total SCFA (as calculated under paragraph 2.2) and z=Ar (as calculated under paragraph 2.3).

OC[C@H]1O[C@@](CO)(O[C@H]2O[C@H](CO)[C@@H](O)[C@H](O)[C@H]2O)[C@@H](O)[C@@H]1O [Sucrose, sucrose]
μmax L (maximum growth rate, lactobacilli) [1]: 0.03 h⁻¹
Lactobacilli microbial counts ([1]; 24 hours, FISH): 6.7 log10cells/ml
μmax Cl (maximum growth rate, Clostridium coccoides and Clostridium histolyticum) [2]: 0.22 h⁻¹
Clostridia microbial counts ([2]; 24 hours, FISH): 7.6 log10cells/ml
μmax Ba (maximum growth rate, Bacteroides spp) [3]: 0.11 h⁻¹
Bacteroides microbial counts ([3]; 24 hours, FISH): 8.1 log10cells/ml
μmax B (maximum growth rate, Bifidobacterium spp) [4]: 0.13 h⁻¹
Bifidobacteria microbial counts ([4]; 24 hours, FISH): 8.0 log10cells/ml
μmax SRB (maximum growth rate, Desulfovibrio spp) [5]: 0.21 h⁻¹
Desulfovibrio microbial counts ([5]; 24 hours, FISH): 6.7 log10cells/ml
lactate production [6]: low
μmax Co (maximum growth rate, Escherichia coli) [7]: 0.27 h⁻¹
E. Coli microbial counts ([7]; 24 hours, FISH): 7.7 log10cells/ml
μmax E (maximum growth rate, Eubacterium rectale) [8]: -0.21 h⁻¹
Eubacteria microbial counts ([8]; 24 hours, FISH): 7.7 log10cells/ml
Ar (rate of substrate assimilation) [9]: 1.4 per hour
Ar (rate of substrate assimilation) ([9]; listed as sucrose): 1.40 per hour
MPE (measure of the prebiotic effect) [10]: −0.6
